Where a SMILES comes first, the peptide text is derived from it. Bridges are numbered along the chain shown (N, C = ends).
Experiments:
LLC-PK1 cells [1] = assay: Incorporation of calcium ion (45Ca) in LLC-PK1 cells; format: cell-based, pig; conditions: 10 minutes
Protocol: The results are shown in FIG. 5 (incorporation of sodium ion in the absence of EIPA), FIG. 6 (incorporation of sodium ion in the presence of EIPA) and FIG. 7 (incorporation of calcium ion).
Incorporation of calcium ion was conducted as follows. Thus, LLC-PK1 cells were washed with a Hanks' solution (calcium-free Hanks' solution) where concentration of calcium chloride was lowered to 0 mM. Calcium chloride (^45Ca) was added to a calcium-free Hanks' solution on the cells together with CRSP, the cells were washed after 10 minutes to completely wash out ^45Ca contained in the solution outside the cells and radioactivity incorporated into the cells was measured by a liquid scintillation counter.

[2] = Calcium concentration in plasma of anesthetized rats; format: in vivo; conditions: rat, 16 nmol/kg from jugular vein
Protocol: CRSP corresponding to an amount of 16 nmol/kg dissolved in a physiological saline solution was administered at a time within a short period from jugular vein of rat under an anesthetized condition and calcium concentration in the plasma and blood pressure were measured. The results are shown in FIG. 13 (changes in calcium concentration in blood by administration of CRSP) and FIG. 14 (changes in blood pressure by administration of CRSP).
CRSP corresponding to the amount of 16 nmol/kg dissolved in a physiological saline solution was administered at a time within short period from […] of rat under an anesthetized condition.

[3] = tested on: amyloride-sensitive Na/H co-transporter on LLC-PK1 cells; assay: Incorporation of sodium ion (22Na) in LLC-PK1 cells, with or without EIPA; format: cell-based, pig; conditions: 10 minutes
Protocol: A culture solution of LLC-PK1 cells was substituted with a Hanks' choline chloride solution, CRSP and sodium chloride having a predetermined radioactivity (^22Na) were added thereto so as to make the final concentration 0 M, 10^−8 M, 10^−7 M and 10^−6 M each, the cells were washed after 10 minutes so that ^22Na contained in the solution outside the cells was completely removed and radioactivity incorporated into the cells was measured by a gamma-counter. Similarly, a culture solution of LLC-PK1 cells was substituted with a Hanks' choline chloride solution, sodium chloride having a predetermined radioactivity (^22Na) as well as CRSP and an amyloride derivative (5-(N-ethyl-N-isopropyl)-amiloride) (EIPA) which is an Na/H co-transporter inhibitor were added thereto so as to make the final concentration 0 M CRSP+0 M EIPA, 10^−6 M CRSP+0 M EIPA, 10^−6 M CRSP+10^−8 M EIPA, 10^−6 M CRSP+10^−7 M EIPA, 10^−6 M CRSP+10^−6 M EIPA and 0 M CRSP+10^−6 M EIPA each. Cells were washed after 10 minutes so that ^22Na contained in the outer solution of the cells was completely removed and radioactivity incorporated into the cells was measured by a gamma-counter.
The results are shown in FIG. 5 (incorporation of sodium ion in the absence of EIPA), FIG. 6 (incorporation of sodium ion in the presence of EIPA) and FIG. 7 (incorporation of calcium ion). […]

LLC-PK1 cells [4] = assay: cAMP production in LLC-PK1 cells (radioimmunoassay); format: cell-based, pig; conditions: ratio of ED50
Protocol: CRSP dissolved in DMEM was added to a medium for LLC-PK1 cells and amount of cAMP secreted therefrom was quantified by means of radioimmunoassay using a cAMP-specific antibody.
LLC-PK1 cells were incubated in a culture medium (a Dulbecco-modified Eagle medium (DMEM) containing 10% of fetal calf serum (FCS)), CRSP dissolved in DMEM containing 0.05% of bovine serum albumin was substituted for a culture medium for the cells after two days, incubation was conducted for 30 minutes, the medium was recovered and amount of the secreted cAMP was quantified by radioimmunoassay using a cAMP-specific antibody.

SMILES: CSCC[C@H](NC(=O)[C@H](CCCCN)NC(=O)[C@@H](NC(=O)[C@@H]1CCCN1C(=O)[C@H](CC(C)C)NC(=O)[C@H](CC(C)C)NC(=O)[C@H](CC(N)=O)NC(=O)[C@H](CO)NC(=O)[C@H](CCCNC(=N)N)NC(=O)[C@@H](NC(=O)[C@H](CCSC)NC(=O)[C@H](CO)NC(=O)CNC(=O)[C@H](CO)NC(=O)[C@H](CCCNC(=N)N)NC(=O)[C@H](CO)NC(=O)[C@H](CC(C)C)NC(=O)[C@H](CC(C)C)NC(=O)CNC(=O)[C@@H](NC(=O)[C@H](CC(C)C)NC(=O)[C@H](CCCNC(=N)N)NC(=O)[C@H](Cc1c[nH]cn1)NC(=O)[C@@H](NC(=O)[C@H](CCSC)NC(=O)[C@@H]1CSSC[C@H](NC(=O)[C@@H](N)CO)C(=O)N[C@@H](CC(N)=O)C(=O)N[C@@H]([C@@H](C)O)C(=O)N[C@@H](C)C(=O)N[C@@H]([C@@H](C)O)C(=O)N1)[C@@H](C)O)C(C)C)C(C)C)[C@@H](C)O)C(=O)NCC(=O)N[C@@H](Cc1ccccc1)C(=O)N[C@@H](CCCCN)C(=O)N[C@H](C(=O)N[C@@H](Cc1ccccc1)C(=O)NCC(N)=O)C(C)C [CRSP] (H-SCNTATCMTHRLVGLLSRSGSMVRSNLLPTKMGFKVFG-NH2; disulfide 2-7)
- incorporation of calcium into cells (LLC-PK1 cells [1]): suppressed
- calcium concentration in plasma [2]: transiently lowered
- incorporation of sodium into cells ([3]; 10^-8 to 10^-6 M): promoted
- amyloride-sensitive Na/H co-transporter [3]: activated
- activity stronger than pig CGRP (LLC-PK1 cells [4]): about 40 fold
- activity stronger than pig calcitonin (LLC-PK1 cells [4]): about 6 fold
